Experimental data as given in article PMC9395488, “First-in-human study of IM156, a novel potent biguanide oxidative phosphorylation (OXPHOS) inhibitor, in patients with advanced solid tumors” (Investigational New Drugs, 2022).

Columns and labels:
A549 = tested on: A549; set-up: method as in ImmunoMet, 2018; conditions: in A549; ref ImmunoMet, 2018; read-out: OXPHOS inhibition IC50; cited from earlier work
[1] = Urine pharmacokinetics of IM156 in patients; assay type: in vivo, human; conditions: for % Dose Recovered / CLr / Total Amount Excreted (Ae): urine
[2] = Day 27, cohort 1, 100 mg QOD, n<3
[3] = Day 27, cohort 7, 1200 mg QD, n<3

NC(=Nc1ccc(OC(F)(F)F)cc1)N=C(N)N1CCCC1 [IM156]
IC50 (A549): 9 µM | IM156 excreted in the urine ([1]; Day 1, 200—1200 mg QOD, approximately): 8–10% | % Dose Recovered ([1]; Day 1, cohort 1, 100 mg QOD): 1.79 ± 0.620% | CLr ([1]; Day 1, cohort 1, 100 mg QOD): 6.16 ± 5.25 L/h | Total Amount Excreted (Ae) ([1]; Day 1, cohort 1, 100 mg QOD): 1790 ± 620 µg | % Dose Recovered ([1]; Day 1, cohort 2, 200 mg QOD): 10.0 ± 1.57% | CLr ([1]; Day 1, cohort 2, 200 mg QOD): 6.69 ± 0.709 L/h | Total Amount Excreted (Ae) ([1]; Day 1, cohort 2, 200 mg QOD): 20000 ± 3150 µg | % Dose Recovered ([1]; Day 1, cohort 3, 400 mg QOD): 7.90 ± 2.90% | CLr ([1]; Day 1, cohort 3, 400 mg QOD): 9.41 ± 6.80 L/h | Total Amount Excreted (Ae) ([1]; Day 1, cohort 3, 400 mg QOD): 31600 ± 11600 µg | % Dose Recovered ([1]; Day 1, cohort 4, 800 mg QOD): 7.86 ± 4.25% | CLr ([1]; Day 1, cohort 4, 800 mg QOD): 10.4 ± 6.93 L/h | Total Amount Excreted (Ae) ([1]; Day 1, cohort 4, 800 mg QOD): 62900 ± 34000 µg | % Dose Recovered ([1]; Day 1, cohort 5, 1200 mg QOD): 9.11 ± 12.9% | CLr ([1]; Day 1, cohort 5, 1200 mg QOD): 7.89 ± 9.01 L/h | Total Amount Excreted (Ae) ([1]; Day 1, cohort 5, 1200 mg QOD): 109000 ± 155000 µg | % Dose Recovered ([1]; Day 1, cohort 6, 800 mg QD): 7.96 ± 5.94% | CLr ([1]; Day 1, cohort 6, 800 mg QD): 7.92 ± 2.62 L/h | Total Amount Excreted (Ae) ([1]; Day 1, cohort 6, 800 mg QD): 63700 ± 47500 µg | % Dose Recovered ([1]; Day 1, cohort 7, 1200 mg QD): 8.79 ± 2.05% | CLr ([1]; Day 1, cohort 7, 1200 mg QD): 7.60 ± 4.02 L/h | Total Amount Excreted (Ae) ([1]; Day 1, cohort 7, 1200 mg QD): 105000 ± 24600 µg | % Dose Recovered [1, 2]: 4.32% | CLr [1, 2]: 4.46 L/h | Total Amount Excreted (Ae) [1, 2]: 4320 µg | % Dose Recovered ([1]; Day 27, cohort 2, 200 mg QOD): 13.9 ± 2.34% | CLr ([1]; Day 27, cohort 2, 200 mg QOD): 6.83 ± 1.58 L/h | Total Amount Excreted (Ae) ([1]; Day 27, cohort 2, 200 mg QOD): 27700 ± 4680 µg | % Dose Recovered ([1]; Day 27, cohort 3, 400 mg QOD): 16.2 ± 11.4% | CLr ([1]; Day 27, cohort 3, 400 mg QOD): 8.68 ± 1.52 L/h | Total Amount Excreted (Ae) ([1]; Day 27, cohort 3, 400 mg QOD): 64700 ± 45600 µg | % Dose Recovered ([1]; Day 27, cohort 4, 800 mg QOD): 16.2 ± 9.80% | CLr ([1]; Day 27, cohort 4, 800 mg QOD): 11.2 ± 6.94 L/h | Total Amount Excreted (Ae) ([1]; Day 27, cohort 4, 800 mg QOD): 129000 ± 78400 µg | % Dose Recovered ([1]; Day 27, cohort 5, 1200 mg QOD): 18.7 ± 10.6% | CLr ([1]; Day 27, cohort 5, 1200 mg QOD): 10.9 ± 7.79 L/h | Total Amount Excreted (Ae) ([1]; Day 27, cohort 5, 1200 mg QOD): 225000 ± 128000 µg | % Dose Recovered ([1]; Day 27, cohort 6, 800 mg QD): 34.8 ± 6.56% | CLr ([1]; Day 27, cohort 6, 800 mg QD): 8.72 ± 3.01 L/h | Total Amount Excreted (Ae) ([1]; Day 27, cohort 6, 800 mg QD): 279000 ± 52500 µg | % Dose Recovered [1, 3]: 21.0% | CLr [1, 3]: 7.16 L/h | Total Amount Excreted (Ae) [1, 3]: 252000 µg | % Dose Recovered ([1]; Fed 1, cohort 7, 1200 mg): 5.42 ± 3.51% | CLr ([1]; Fed 1, cohort 7, 1200 mg): 5.16 ± 3.51 L/h | Total Amount Excreted (Ae) ([1]; Fed 1, cohort 7, 1200 mg): 65100 ± 42100 µg
